Data reported in the METLIN SMRT retention time set (Domingo-Almenara et al. 2019).

Experiment: gradient 5% acetonitrile 3 min, to 50% in 2 min, to 85% in 15 min, held 3 min, 100 µL/min
Details: column: Zorbax Extend-C18 2.1 x 50 mm; eluents: water / acetonitrile, 0.1% formic acid
In short: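 Data were gathered over 3 months by HPLC coupled to a quadrupole time-of-flight mass spectrometer, operated in positive and negative ionization mode. Mixtures of ~100 pure standards ran on a Zorbax Extend-C18 column (2.1 × 50 mm, 1.8 μm) at 100 μL/min, with water and acetonitrile each containing 0.1% formic acid and dead and dwell volumes of 40 μL and 900 μL. Retention time was read from adduct peaks picked by computer and checked manually.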

SMILES | RP-LC retention time [s]
c1ccc(-c2noc(-c3ccc(OC4CNC4)cc3)n2)cc1 | 674
CCN(CC)C(=O)c1ccccc1NC(=O)c1ccc2c(c1)-c1ccccc1S(=O)(=O)N2CC | 992
CCCCC(=O)N(C)CC1CCOCC1 | 686
O=C(O)c1cccc(Nc2c(-c3ccccc3)nc3cnccn23)c1 | 697
COc1ccc(NC(=O)N2CCC(CCOc3cccnc3)CC2)cc1 | 630
COc1cc(-c2nc(C3CC(=O)N(c4ccc(F)cc4)C3)no2)cc(OC)c1OC (stereo unspecified) | 901
COc1ccc(OCc2noc(CNC(=O)NCc3cccs3)n2)cc1 | 737
Cc1cc(OCC(=O)Nc2cccc(F)c2)nc(N2CCN(c3ccccc3)CC2)n1 | 871
O=C(Nc1cc(-c2ccsc2)no1)c1ccc(Cl)cc1 | 1010
O=C(NC1CC1)c1nc(C(=O)N2CCN(c3ccccc3F)CC2)cs1 | 818
O=C(c1ccncc1)N1CCCC(c2nc(-c3ccc(F)cc3)n[nH]2)C1 (stereo unspecified) | 614
O=C(Cc1cccs1)Nc1cnc(-c2ccccc2)nc1 | 893
Cc1ccc(C(C)NC(=O)c2cccc(C3CCCN(C(=O)NC(C)C)C3)c2)c(C)c1 (stereo unspecified) | 969
Cc1cc(N2CCN(C(=O)c3ccc(Br)cc3)CC2)nc2nnc(C)n12 | 563
O=C1CCCc2cc(S(=O)(=O)N3CCC(C(=O)N4CCC5(CC4)OCCO5)CC3)ccc2N1 | 662
Fc1cccc(Cl)c1C1SCc2nc3ccccc3n21 (stereo unspecified) | 845
O=C(NCc1cccs1)c1nc2ccccn2c1-c1ccsc1 | 830
O=C(CCn1nnc2cc(-c3noc(COc4ccc(F)cc4)n3)ccc21)N1CCCCCC1 | 990
Cn1c(=O)c(N2CCN(C(=O)c3cc(F)ccc3F)CC2)nc2cccnc21 | 834
CSc1ccc(-c2nc3nc(C)cc(C)n3c2Nc2ccc3c(c2)OCCO3)cc1 | 724
COc1ccc(OCc2nc(-c3cccc(-c4ccn[nH]4)c3)no2)cc1 | 914
CCc1nncn1C1CCN(S(=O)(=O)c2cccc(C)c2)CC1 | 697

SMILES | RP-LC retention time [s]
COC(=O)c1cc2c(=O)n(Cc3ccco3)ccc2nc1C | 747
O=C(c1ccc(F)c(F)c1)N1CCC(n2c(-c3ccoc3)nc3cccnc32)C1 (stereo unspecified) | 745
CCOc1ccccc1CNC(=O)C1CCCN(c2nn3c(=O)c4c(nc3s2)CCCC4)C1 (stereo unspecified) | 831
O=C1c2ccccc2-c2onc3c(N4CCN(c5ccccn5)CC4)cc(N4CCCCC4)c1c23 | 600
COc1cc(NCc2ccccc2O)c2ncccc2c1 | 758
Cc1cc(OCC(=O)Nc2ccccc2)nc(N2CCN(c3ccccc3)CC2)n1 | 804
Cc1cccc(NS(=O)(=O)c2c[nH]c3ncccc23)c1C | 762
O=C(Cn1c(=O)oc2ccccc21)N1CCN(c2ccccn2)CC1 | 598
Cc1cccc(NC(=O)N2CCc3nc(-c4ccc(Cl)cc4)ncc3C2)c1 | 1080
CC(C)(C)c1cc(N2CCN(c3ccccn3)CC2)n2ncc(-c3ccc(Cl)cc3)c2n1 | 1220
O=C(N[C@H]1C[C@@H]2C[C@H]1CN2C(=O)Nc1ccc2c(c1)CCC2)c1ccccc1 | 829
O=C(NCC1CCCO1)C1CCN(C(=O)c2ncn3c2COC(c2ccccc2)C3)CC1 (stereo unspecified) | 649
CCCNc1cc(N2CCCC(CCC(=O)Nc3ccc4c(c3)OCO4)C2)ncn1 (stereo unspecified) | 691
Cc1ccc(NC(=O)C2CCN(S(=O)(=O)c3ccc4c(c3)sc(=O)n4C)CC2)cc1F | 933
C=CCn1c(SCC(=O)N2CCC(C(N)=O)CC2)nnc1-c1sc2ncccc2c1N | 616
Nc1nc(SCC(=O)Nc2cccc(C(F)(F)F)c2)n[nH]1 | 637
Cc1cc(Cl)ccc1NS(=O)(=O)c1cc2c(s1)CCN(C(=O)C1CC1)C2 | 923
CC(C)c1nnc2n1CCN(C(=O)c1cc(-c3cccs3)[nH]n1)C2 | 628
Cc1ccc(NC(=O)C2CCN(C(=O)c3ncn4c3COC(c3ccc(F)cc3)C4)CC2)cc1C (stereo unspecified) | 848
Cc1ccn2c(NC(=O)C(C)(C)Oc3ccc(Cl)cc3)c(-c3ccc(F)cc3)nc2c1 | 819
CCc1ccc(NC(=O)CSc2cc(N3CCCCC3)ncn2)cc1 | 974
COc1ccc(NS(=O)(=O)c2c(C)sc(C)c2-c2cc(C(F)(F)F)on2)cc1 | 1110

SMILES | RP-LC retention time [s]
CCn1cc(S(=O)(=O)N2CCCCC2CCn2cc(-c3ccccc3)nn2)cn1 (stereo unspecified) | 804
CC(C)n1nc(CNC(=O)c2cccs2)c2ccccc21 | 845
CC(=O)Nc1ccc(NC(=O)C2CC(=O)N(c3ccc4c(c3)CCN4C(=O)C3CC3)C2)cc1 (stereo unspecified) | 658
COc1ccccc1NC(=O)Oc1cccc(OC(=O)c2ccccc2)c1 | 653
CN(C)C(=O)c1ccc2c(c1)N(CC(=O)Nc1ccccc1Cl)C(=O)CS2 | 705
Cc1noc(C)c1S(=O)(=O)NCCn1c(C)cnc1-c1ccncc1 | 570
O=C(NCCc1c[nH]c2ccccc12)C1CCCN(c2ccc(-n3ccnc3)nn2)C1 (stereo unspecified) | 568
O=C(Nc1ccc2c(c1)OCO2)C1CCN(c2cnc3nccnc3c2)CC1 | 690
O=C(NC1CCCCC1)C1CCN(Cc2cc3ccccc3n2Cc2ccccc2Cl)CC1 | 847
Fc1ccc(-c2nnc(Cc3nc(-c4ccccc4F)no3)o2)cc1 | 1010
Cc1nc2ccc(Cl)cn2c1[N+](=O)[O-] | 820
COc1ccc(C(=O)NC2CCN(c3cc(-c4ccccc4)[nH]n3)C2)cc1OC (stereo unspecified) | 663
COc1ccc2c(c1)C1(CCN(C(=O)Nc3cccc(F)c3)C1)C(=O)N2C (stereo unspecified) | 811
Cc1csc(NC(=O)C2CCN(S(=O)(=O)c3cc(-c4noc(C)n4)cs3)CC2)n1 | 829
Cc1cccc(NC(=O)N2CCCC2c2nc(-c3cccc(F)c3)no2)c1 (stereo unspecified) | 1020
CC(=O)NCCc1csc(C2CCN(C(=O)C3CCCO3)CC2)n1 (stereo unspecified) | 581
CCc1ccc(S(=O)(=O)Nc2ccc(N3CCCN(C)CC3)cc2C(=O)O)cc1 | 650
O=C1COc2cc(S(=O)(=O)N3CCCC3C(=O)Nc3ccccc3)c(Cl)cc2N1 (stereo unspecified) | 768
Cc1ccc(N2CC(NC(=O)Nc3nc(C)cs3)CC2=O)cc1 (stereo unspecified) | 660
CCS(=O)(=O)N1CC(=O)N(c2ccc(C)cc2)C(C)(C(=O)NCc2ccc(F)cc2)C1 (stereo unspecified) | 834
CCCn1cc(CNC(=O)C2CCCN(c3nnc4ccc(C(F)(F)F)cn34)C2)c(C)n1 (stereo unspecified) | 709
Cc1nnc(-c2nnc(NCc3ccccc3F)c3ccccc23)o1 | 819
